{"source": "ChEMBL document CHEMBL1152252", "about": "“Synthesis, biological evaluation, structural-activity relationship, and docking study for a series of benzoxepin-derived estrogen receptor modulators” (Bioorg Med Chem, 2008)", "key": {"MCF7 [1]": {"test_system": "MCF7", "test": "Antiproliferative activity against estrogen receptor dependent human MCF7 cells after 72 hrs by MTT assay", "assay_type": "functional, cell-based", "conditions": "MCF7, 72 h"}, "MDA-MB-231 [2]": {"test_system": "MDA-MB-231", "test": "Antiproliferative activity against hormone independent human MDA-MB-231 cells upto 100 nM after 72 hrs by MTT assay", "assay_type": "functional, cell-based"}, "Estrogen receptor beta": {"molecular_target": "Estrogen receptor beta (Homo sapiens, UniProt Q92731)", "sequence (Q92731 whole entry)": "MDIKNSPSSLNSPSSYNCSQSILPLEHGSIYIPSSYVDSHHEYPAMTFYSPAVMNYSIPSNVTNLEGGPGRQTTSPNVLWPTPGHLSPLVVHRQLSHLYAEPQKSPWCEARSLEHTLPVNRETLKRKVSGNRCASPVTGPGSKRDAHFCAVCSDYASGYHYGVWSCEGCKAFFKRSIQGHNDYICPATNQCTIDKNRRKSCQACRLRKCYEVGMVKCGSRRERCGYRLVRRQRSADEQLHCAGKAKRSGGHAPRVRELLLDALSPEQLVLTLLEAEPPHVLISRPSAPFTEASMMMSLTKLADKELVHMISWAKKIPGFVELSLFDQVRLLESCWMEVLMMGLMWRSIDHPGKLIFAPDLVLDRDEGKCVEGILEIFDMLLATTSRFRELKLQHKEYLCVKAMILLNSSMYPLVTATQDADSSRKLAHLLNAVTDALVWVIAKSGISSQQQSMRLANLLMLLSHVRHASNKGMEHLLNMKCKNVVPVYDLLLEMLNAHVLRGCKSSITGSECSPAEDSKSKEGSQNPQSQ", "test": "biochemical", "description": "Displacement of fluorescein labeled estradiol from human recombinant ERbeta expressed in baculovirus infected insect cells by fluorescence polarization assay"}, "Estrogen receptor": {"molecular_target": "T1, Estrogen receptor (Homo sapiens, UniProt P03372)", "T1 sequence (P03372 whole entry)": "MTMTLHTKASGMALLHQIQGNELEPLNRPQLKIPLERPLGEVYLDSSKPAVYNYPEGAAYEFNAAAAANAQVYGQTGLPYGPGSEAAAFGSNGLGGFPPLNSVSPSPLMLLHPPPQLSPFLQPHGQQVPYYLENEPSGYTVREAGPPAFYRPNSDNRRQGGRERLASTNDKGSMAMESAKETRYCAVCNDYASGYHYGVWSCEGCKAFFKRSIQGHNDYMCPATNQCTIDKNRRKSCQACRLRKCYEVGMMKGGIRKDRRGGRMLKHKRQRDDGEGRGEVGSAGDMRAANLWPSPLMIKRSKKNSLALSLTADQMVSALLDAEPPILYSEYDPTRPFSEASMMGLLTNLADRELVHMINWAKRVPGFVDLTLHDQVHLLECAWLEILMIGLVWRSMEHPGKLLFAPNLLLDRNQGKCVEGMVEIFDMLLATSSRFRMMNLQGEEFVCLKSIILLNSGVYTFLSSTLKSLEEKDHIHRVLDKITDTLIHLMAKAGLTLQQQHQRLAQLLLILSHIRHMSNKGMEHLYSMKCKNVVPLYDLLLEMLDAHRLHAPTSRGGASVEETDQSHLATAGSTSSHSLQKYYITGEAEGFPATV", "test": "biochemical", "description": "Displacement of fluorescein labeled estradiol from human recombinant ERalpha expressed in baculovirus infected insect cells by fluorescence polarization assay"}, "MCF7 [3]": {"test_system": "MCF7", "test": "Antiproliferative activity against estrogen receptor dependent human MCF7 cells at 10 uM after 72 hrs by LDH assay", "assay_type": "functional"}, "Ishikawa [4]": {"test_system": "Ishikawa", "test": "Antiestrogenic activity in human Ishikawa cells assessed as inhibition of estrogen-induced alkaline phosphatase activity after 72 hrs", "assay_type": "functional, cell-based"}, "Ishikawa [5]": {"test_system": "Ishikawa", "test": "Estrogenic stimulatory activity in human Ishikawa cells assessed as alkaline phosphatase activity at 1 uM after 72 hrs in absence of estradiol", "assay_type": "functional"}, "MDA-MB-231 [6]": {"test_system": "MDA-MB-231", "test": "Antiproliferative activity against hormone independent human MDA-MB-231 cells after 72 hrs by MTT assay", "assay_type": "functional, cell-based", "conditions": "MDA-MB-231, 72 h"}}, "note": "The source made the active and inactive calls. The rule behind the calls is not given here."}
{"smiles": "CN(C)CCOc1ccc(C2=C(c3cccs3)CCOc3ccccc32)cc1", "values": [{"measurement": "IC50", "setting": "MCF7 [1]", "value": 16700, "unit": "nM"}, {"measurement": "Activity", "setting": "MDA-MB-231 [2]", "value": "inactive"}]}
{"smiles": "CCC(=C(c1ccc(O)cc1)c1ccc(OCCN(C)C)cc1)c1ccccc1", "values": [{"measurement": "IC50", "setting": "MCF7 [1]", "value": 107, "unit": "nM"}, {"measurement": "Activity", "setting": "MDA-MB-231 [2]", "value": "inactive"}]}
{"smiles": "Oc1ccc(C2=C(c3ccc(OCCN4CCCCC4)cc3)c3ccc(F)cc3OCC2)cc1", "values": [{"measurement": "IC50", "setting": "Estrogen receptor beta", "value": 8.78, "unit": "nM"}, {"measurement": "IC50", "setting": "MCF7 [1]", "value": 156, "unit": "nM"}, {"measurement": "IC50", "setting": "Estrogen receptor", "value": 6.5, "unit": "nM"}, {"measurement": "Activity", "setting": "MDA-MB-231 [2]", "value": "inactive"}]}
{"smiles": "Fc1ccc2c(c1)OCCC(c1ccccc1)=C2c1ccc(OCCN2CCCC2)cc1", "values": [{"measurement": "IC50", "setting": "Estrogen receptor beta", "value": 31, "unit": "nM"}, {"measurement": "IC50", "setting": "MCF7 [1]", "value": 1870, "unit": "nM"}, {"measurement": "IC50", "setting": "Estrogen receptor", "value": 16.2, "unit": "nM"}, {"measurement": "Activity", "setting": "MDA-MB-231 [2]", "value": "inactive"}]}
{"smiles": "c1ccc(C2=C(c3ccc(OCCN4CCCC4)cc3)c3ccccc3OCC2)cc1", "values": [{"measurement": "Activity", "setting": "MCF7 [3]", "value": 8, "unit": "%"}, {"measurement": "IC50", "setting": "MCF7 [1]", "value": 1580, "unit": "nM"}, {"measurement": "Activity", "setting": "MDA-MB-231 [2]", "value": "inactive"}]}
{"smiles": "Oc1ccc(C2=C(c3ccc(OCCN4CCCC4)cc3)c3ccc(F)cc3OCC2)cc1", "values": [{"measurement": "IC50", "setting": "Ishikawa [4]", "value": 194, "unit": "nM"}, {"measurement": "Activity", "setting": "Ishikawa [5]", "value": 9.7, "unit": "%"}, {"measurement": "IC50", "setting": "MDA-MB-231 [6]", "value": 6750, "unit": "nM"}, {"measurement": "IC50", "setting": "Estrogen receptor beta", "value": 0.7, "unit": "nM"}, {"measurement": "IC50", "setting": "MCF7 [1]", "value": 21.4, "unit": "nM"}, {"measurement": "IC50", "setting": "Estrogen receptor", "value": 10.4, "unit": "nM"}, {"measurement": "Activity", "setting": "MDA-MB-231 [2]", "value": "inactive"}]}
{"smiles": "Oc1ccc(C2=C(c3ccc(OCCN4CCCC4)cc3)CCOc3cc(F)ccc32)cc1", "values": [{"measurement": "IC50", "setting": "Ishikawa [4]", "value": 216, "unit": "nM"}, {"measurement": "Activity", "setting": "Ishikawa [5]", "value": 23, "unit": "%"}, {"measurement": "IC50", "setting": "Estrogen receptor beta", "value": 17.3, "unit": "nM"}, {"measurement": "IC50", "setting": "MCF7 [1]", "value": 6500, "unit": "nM"}, {"measurement": "IC50", "setting": "Estrogen receptor", "value": 5.57, "unit": "nM"}, {"measurement": "Activity", "setting": "MDA-MB-231 [2]", "value": "inactive"}]}
{"smiles": "COc1ccc2c(c1)OCCC(c1ccc(O)cc1)=C2c1ccc(OCCN2CCCCC2)cc1", "values": [{"measurement": "IC50", "setting": "MCF7 [1]", "value": 1540, "unit": "nM"}, {"measurement": "Activity", "setting": "MDA-MB-231 [2]", "value": "inactive"}]}
{"smiles": "Oc1ccc(C2=C(c3ccc(OCCN4CCCC4)cc3)c3ccc(O)cc3OCC2)cc1", "values": [{"measurement": "Activity", "setting": "MCF7 [3]", "value": 11, "unit": "%"}, {"measurement": "IC50", "setting": "Ishikawa [4]", "value": 20.8, "unit": "nM"}, {"measurement": "Activity", "setting": "Ishikawa [5]", "value": 6, "unit": "%"}, {"measurement": "IC50", "setting": "MDA-MB-231 [6]", "value": 2600, "unit": "nM"}, {"measurement": "IC50", "setting": "Estrogen receptor beta", "value": 2.9, "unit": "nM"}, {"measurement": "IC50", "setting": "MCF7 [1]", "value": 11.9, "unit": "nM"}, {"measurement": "IC50", "setting": "Estrogen receptor", "value": 8.4, "unit": "nM"}, {"measurement": "Activity", "setting": "MDA-MB-231 [2]", "value": "inactive"}]}
{"smiles": "Oc1ccc(C2=CCCOc3ccccc32)cc1", "values": [{"measurement": "Activity", "setting": "MCF7 [3]", "value": 17, "unit": "%"}]}
{"smiles": "COc1ccc2c(c1)OCCC=C2c1ccc(O)cc1", "values": [{"measurement": "Activity", "setting": "MCF7 [3]", "value": 17, "unit": "%"}]}
{"smiles": "Oc1cccc(C2=C(c3ccc(OCCN4CCCC4)cc3)c3ccc(F)cc3OCC2)c1", "values": [{"measurement": "IC50", "setting": "Estrogen receptor beta", "value": 6, "unit": "nM"}, {"measurement": "IC50", "setting": "MCF7 [1]", "value": 359, "unit": "nM"}, {"measurement": "IC50", "setting": "Estrogen receptor", "value": 14, "unit": "nM"}, {"measurement": "Activity", "setting": "MDA-MB-231 [2]", "value": "inactive"}]}
{"smiles": "CC/C(=C(\\c1ccccc1)c1ccc(OCCN(C)C)cc1)c1ccccc1", "note": "[TAMOXIFEN]", "values": [{"measurement": "Activity", "setting": "Ishikawa [5]", "value": 16.5, "unit": "%"}, {"measurement": "IC50", "setting": "MCF7 [1]", "value": 4120, "unit": "nM"}, {"measurement": "Activity", "setting": "MDA-MB-231 [2]", "value": "inactive"}]}
{"smiles": "Fc1ccc(C2=C(c3ccc(OCCN4CCCC4)cc3)c3ccc(F)cc3OCC2)cc1", "values": [{"measurement": "IC50", "setting": "Estrogen receptor beta", "value": 262, "unit": "nM"}, {"measurement": "IC50", "setting": "MCF7 [1]", "value": 450, "unit": "nM"}, {"measurement": "IC50", "setting": "Estrogen receptor", "value": 126, "unit": "nM"}, {"measurement": "Activity", "setting": "MDA-MB-231 [2]", "value": "inactive"}]}
{"smiles": "CS(=O)(=O)c1ccc(C2=C(c3ccc(OCCN4CCCC4)cc3)c3ccc(F)cc3OCC2)cc1", "values": [{"measurement": "IC50", "setting": "Estrogen receptor beta", "value": "> 15000", "unit": "nM"}, {"measurement": "IC50", "setting": "MCF7 [1]", "value": 4560, "unit": "nM"}, {"measurement": "IC50", "setting": "Estrogen receptor", "value": "> 15000", "unit": "nM"}, {"measurement": "Activity", "setting": "MDA-MB-231 [2]", "value": "inactive"}]}
